We go through 32 compounds from PMC7504728, “Bioactivities of Lyngbyabellins from Cyanobacteria of Moorea and Okeania Genera” (Molecules, 2020).

Data set [1] has as its system Amphibalanus amphitrite barnacle larvae. Kind of data set: Antifouling (settlement inhibition) assay on A. amphitrite cyprids. Type of data set: in vivo. Here is the method: As for all the compounds, the activity remained after 120 h of exposure.
The antifouling activity of the compounds was determined according to a procedure reported previously. Briefly, the newly developed cyprids of A. amphitrite were tested against several different concentrations of the isolated compounds (1–5) (0.03–10 μg/mL) in triplicate (n = 3). The assays were conducted using 24-well polystyrene culture plates, with each well containing 2 mL seawater and six cyprids. […] The total number of dead cyprids was counted after 120 h of exposure. Antifouling activity was expressed as an EC50 according to Probit analysis. CuSO4 was used as a positive control and 80% filtered (0.20 µm of pore filter) natural seawater (diluted with deionized water) as a negative control.

Another data set deals with HT29, HeLA, MCF7. To be noted: range over HT29, HeLA, MCF7 value from current study; cited from earlier work. The text has this: (§1) Table 2 Diversity of biological activities reported for Lyngbyabellins in the literature from 2000 to 2020. | column: IC50 (µM)
Data set [2] deals with MCF7 breast cancer cells. Kind of data set: Cytotoxicity MTT assay on MCF7 breast cancer cells. Type of data set: cell-based, human. The note with it: MTT after 72 h incubation; for IC50: 37 °C, read-out: IC50, cytotoxicity with respect to MCF7 breast cancer cells. Here is the method:
The cytotoxicity of the compounds was determined according to a procedure reported previously. MCF7 breast cancer cells were maintained in RPMI-1640 medium with 10% fetal bovine serum (FBS). The cells were plated into 96-well plates with a density of 1.0 × 10^4 cells per well. After 24 h incubation, the cells were exposed to different concentrations of compounds, with cisplatin as a positive control and with 1% filtered ethanol as a negative control. The MTT assay was conducted after 72 h of incubation at 37 °C and 5% CO2.

Data set [3] deals with Plasmodium. The note with it: antimalarial, cited from earlier work. The text has this: Table 1 Structural diversity and antimalarial potential of secondary metabolites derived from cyanobacteria. | column: IC50 (µM)
The subject of data set [4] is various cancer cell lines. To be noted: cited from earlier work. The source says: (§2) As part of an effort to identify antiplasmodial and antifouling metabolites, two cyanobacteria from two geographically distinct environments were studied: a Malaysian Moorea bouillonii and a Red Sea Okeania sp. Moorea and Okeania genera were delineated from the Lyngbya genus. As phylogenetically close genera, they produce similar compounds. In this study, the lyngbyabellin family depsipeptides were isolated from Moorea bouillonii and Okeania sp. These kinds of compounds were initially found in the sea hare Dolabella auricularia after being identified from cyanobacterial origins as p ...

Data set [5] relates to Plasmodium. To be noted: antimalarial; pLDH; cited from earlier work.
From the text: as §2, with “Table 1 Structural diversity and antimalarial potential of secondary metabolites derived from cyanobacteria. | column: IC50 (µM) || As part” for “As part”

For another data set, the system named is HT29, HeLA, CA46, PtK2. The note with it: range over HT29, HeLA; cited from earlier work.
From the text: as §1

The test system of a further data set is KB, LoVo. To be noted: range over KB; cited from earlier work.
From the text: as §1

In another data set the test system is KB. The note with it: cited from earlier work.
From the text: as §1

The next data set deals with H460, Neuro-2a. To be noted: range over H460, Neuro-2a; cited from earlier work.
From the text: as §1

A further data set deals with HT29, HeLA. The note with it: range over HT29, HeLA; cited from earlier work.
From the text: as §1

The next data set deals with H460. To be noted: cited from earlier work.
From the text: as §1

The next data set has as its system H460, HCT116. To be noted: range over H460, HCT116; cited from earlier work.
From the text: as §1

Data set [6] deals with Plasmodium falciparum strain FCR-3. Kind of data set: Antiplasmodial assay, Giemsa staining. Type of data set: cell-based. Here is the method: Compound 1 isolated from Okeania sp., and compounds 6 and 7 from M. bouillonii were tested against the malaria parasite (P. falciparum). […] The assay was repeated three times in the concentration range of 0.05–10 (μg/mL). It is noteworthy that the mechanisms of antiplasmodial compounds isolated from M. bouillonii impeding the growth of Plasmodium are still unclear. […] However, as 1 and 7 were reported as cytotoxic towards cancer cells, we hypothesized that they act in the same way on erythrocytes, which distorts the results of the antimalarial assay.
The Giemsa staining method previously described by Aydin-Schmidt was used to evaluate the ability of compounds to inhibit the malaria parasite. A synchronized culture of Plasmodium falciparum strain FCR-3, the late-ring stage, was used (parasitemia 2%) for this assay. A series of compound concentrations were applied in 96-well microplates and incubated for 72 h at 37 °C in a reduced oxygen atmosphere. Compounds 1, 6, and 7 were dissolved in DMSO and tested in triplicate at three separate times. Chloroquine was used as a positive control and cultured medium with 1% DMSO (final concentration of solvent in all compound tested) as a negative control. Each assay was conducted in triplicate (n = 3). After 72 h, the parasitic level was evaluated by Giemsa and light microscopy. The inhibition level of compounds against Plasmodium was calculated using the formula previously reported.

In data set [7] the test system is P. falciparum (liver-stage). To be noted: cited from earlier work.
From the text: as §1

For a further data set, the system named is HT29, HeLA, KB, LoVo. To be noted: range over HT29, HeLA; cited from earlier work.
From the text: as §1

Data set [8] deals with Amphibalanus amphitrite barnacle larvae. Set-up: method as in PMID 29019684. The note with it: A.amphitrite barnacle cypris; cited from earlier work.
In data set [9] the test system is MCF7 breast cancer cells. To be noted: cited from earlier work. The text has this: These differences in cytotoxicity were attributed to the dissimilarities in their structures.
The subject of a further data set is H460, Neuro-2a, MCF7. To be noted: range over H460, Neuro-2a, cited from earlier work.
From the text: as §1

Setting [10] is: A.amphitrite barnacle cypris, current study.
The mark [11] stands for this setting: strain FCR-3, late-ring (intraerythrocytic) stage, parasitemia 2%, 72 h, 37 °C, 0.05–10 μg/mL, repeated three times, triplicate, read-out: IC50 against malaria parasite (P. falciparum).
[12] abbreviates: previous study, read-out: IC50, cytotoxicity with respect to MCF7 breast cancer cells.

Like-named read-outs stand apart in the source and are kept apart here.

What is called EC50 is the concentration giving half of the maximal effect. In general, IC50 refers to the concentration that inhibits the measured activity by half.

27-deoxylyngbyabellin A [Compound 5] had a concentration giving a half-maximal response (EC50) in [1] (setting [10]) of 0.09 µg/mL. In addition, in data set [1] (current study), the “Toxicity to A.amphitrite barnacle cypris (remark in EC50 cell)” value is given as 0.09 (but toxic). Besides, the Toxicity to larvae result in [1] (exposed to 1 µg/mL, dead cyprids counted after 120 h of exposure) was “almost all the larvae were dead”. In addition, the IC50 in the data set with HT29, HeLA, MCF7 is 7.3 to 310 nM; in the data set with MCF7 breast cancer cells [2], 310 nM.
With `C/C1=C/C(=O)O[C@H](C(C)(C)C)CCC[C@H](O)CCC[C@H](O)CCC[C@H](O)CCC[C@@H](O)C[C@@H](O)C[C@H](O)CCC[C@@H](O)CCC[C@@H](O)C[C@@H](O)CCCCC1` [Bastimolide A], the IC50 in the data set on Plasmodium [3] (Sybr Green) is 270 nM.
`C/C1=C/C(=O)O[C@H](CCC[C@@H](O)CCC[C@@H](O)CCC[C@@H](O)CCC[C@H](O)C(C)(C)C)C[C@@H](O)C[C@H](O)CCC[C@@H](O)CCC[C@@H](O)C[C@@H](O)CCCCC1` [Bastimolide B]: the IC50 in the data set on Plasmodium [3] (Pico-Green) was 5700 nM.
Take Carmabin A: the IC50 in the data set with Plasmodium [3] (Pico-Green) is 4300 nM.
In the case of Companeramide A, the IC50 in the data set on Plasmodium [3] (Sybr Green) is 5700 nM.
As to Dolastatin 10, the “Selectivity index against various cancer cell lines” value in [4] is at most 1. In addition, the 50% inhibitory concentration (IC50) in the data set on Plasmodium [5] is 0.1 nM.
On to Dolastatin 15, for which the IC50 in the data set with Plasmodium [5] was 2.4 nM.
With Dragomabin, the IC50 with Plasmodium [3] (Pico-Green) is 6000 nM.
Consider Gallinamide A, for which the IC50 with Plasmodium [3] (Pico-Green) is 8400 nM.
Turning to Hoshinoamide A, the IC50 with Plasmodium [5] is 5200 nM.
Ikoamide: in the data set with Plasmodium [5], the 50% inhibitory concentration (IC50) is 140 nM.
Take Kakeromamide B: in the data set on Plasmodium [3] (Sybr Green), the IC50 is 8900 nM.
Turning to Lyngbyabellin B, the 50% inhibitory concentration (IC50) in the data set with HT29, HeLA, CA46, PtK2 was 100 to 1100 nM.
As to Lyngbyabellin C, in the data set on KB, LoVo, the IC50 was 2100 to 5300 nM.
In the case of Lyngbyabellin D, in the data set with KB, the IC50 was 100 nM.
For the compound Lyngbyabellin E, in the data set on H460, Neuro-2a, the IC50 was 400 to 1200 nM.
As to Lyngbyabellin F, the IC50 with H460, Neuro-2a is 1000 to 1800 nM.
Regarding Lyngbyabellin I, the IC50 in the data set on H460, Neuro-2a was 700 to 1000 nM.
On to Lyngbyabellin J, for which the IC50 in the data set with HT29, HeLA was 41 to 54 nM.
With Lyngbyabellin K, the “IC50 (µM)” value in the data set with H460 was “Inactive”.
In the case of Lyngbyabellin L, in the data set on H460, the “IC50 (µM)” value is reported as “Inactive”.
Regarding Lyngbyabellin M, the “IC50 (µM)” value with H460 is “Inactive”.
For the compound Lyngbyabellin N, the IC50 in the data set with H460, HCT116 was 4.8 to 1800 nM.
As for Mabunamide, the IC50 in the data set with Plasmodium [5] is 1400 nM.
For the compound Ulongamide A, the IC50 with Plasmodium [3] (Sybr Green) was 990 nM.
For Venturamide A, the IC50 in the data set with Plasmodium [3] (Pico-Green) is 8200 nM.
For the compound homohydroxydolabellin [Compound 6], in the data set with MCF7 breast cancer cells [2], the “Cytotoxicity towards MCF7 cells” value is over 50 µg/mL and the “Cytotoxicity with respect to MCF7 breast cancer cells (in words)” value is reported as “non-cytotoxicity”. For the same compound, the IC50 in data set [6] (setting [11]) came to 6400 nM.
As for lyngbyabellin A [Compound 7], the IC50 with Plasmodium [3] (Sybr Green) is 1.5 nM; in data set [7], 1.5 nM; with HT29, HeLA, KB, LoVo, 21 to 345 nM; in data set [6] (P.falciparum (intraerythrocytic stage), current study, read-out: IC50) it was 300 nM.
Consider lyngbyabellin G [Compound 1], for which, in data set [8], the “EC50” value is 4.41 µg/mL. Also, the IC50 in the data set with MCF7 breast cancer cells [9] (setting [12]) was 120000 nM; with H460, Neuro-2a, MCF7, 2200 to 120000 nM; in data set [6] (setting [11]), 1100 nM.
For lyngbyabellin H [Compound 4], in data set [1] (10 µg/mL, 48 h exposure, triplicate (n = 3)), the “Antifouling activity at 10 µg/mL” value is “inactive”. Moreover, the “EC50(µg/mL)” value in data set [1] (setting [10]) is recorded as “Inactive”. Also, the IC50 in the data set with H460, Neuro-2a, MCF7 (MCF7 value from current study) is 70 to 1400 nM; in the data set with MCF7 breast cancer cells [2] it was 70 nM.
For lyngbyabellin O [Compound 2], in [8], the “EC50” value was 0.24 µg/mL. In addition, the “IC50 (µM)” value in the data set on MCF7 breast cancer cells [9] (MCF7) is “Inactive”. Also, the IC50 in the data set with MCF7 breast cancer cells [9] (setting [12]) was over 160000 nM.
As to lyngbyabellin P [Compound 3], in [8], the “EC50” value was 0.62 µg/mL. Also, the IC50 in the data set with MCF7 breast cancer cells [9] (MCF7, read-out: IC50) was 9000 nM.
